{"source": "paper PMC5034817", "about": "(Journal of Neurochemistry, 2015)", "molecules": {"B1": {"name": "Goα, endogenous rat brain (natural protein, rat (endogenous in rat brain), UniProt P59215 1-354, looked up)", "chain": "MGCTLSAEERAALERSKAIEKNLKEDGISAAKDVKLLLLGAGESGKSTIVKQMKIIHEDGFSGEDVKQYKPVVYSNTIQSLAAIVRAMDTLGVEYGDKERKADSKMVCDVVSRMEDTEPFSAELLSAMMRLWGDSGIQECFNRSREYQLNDSAKYYLDSLDRIGAADYQPTEQDILRTRVKTTGIVETHFTFKNLHFRLFDVGGQRSERKKWIHCFEDVTAIIFCVALSGYDQVLHEDETTNRMHESLMLFDSICNNKFFIDTSIILFLNKKDLFGEKIKKSPLTICFPEYPGSNTYEDAAAYIQTQFESKNRSPNKEIYCHMTCATDTNNIQVVFDAVTDIIIANNLRGCGLY"}, "B2": {"name": "His6RGS4 (recombinant regulator of G protein signaling 4) (natural protein, UniProt P49799 1-205, looked up)", "chain": "MCKGLAGLPASCLRSAKDMKHRLGFLLQKSDSCEHSSSHSKKDKVVTCQRVSQEEVKKWAESLENLINHECGLAAFKAFLKSEYSEENIDFWISCEEYKKIKSPSKLSPKAKKIYNEFISVQATKEVNLDSCTREETSRNMLEPTITCFDEAQKKIFNLMEKDSYRRFLKSRFYLDLTNPSSCGAEKQKGAKSSADCTSLVPQCA"}, "B3": {"name": "RGS4: recombinant regulator of G protein signaling 4, His6-tagged, expressed in JM109 E. coli (protein)", "chain": "B2 chain", "modifications": "left off: His6, end not stated, kept"}}, "key": {"MOR": {"target": "MOR (Homo sapiens, UniProt P35372)", "sequence (P35372 whole entry)": "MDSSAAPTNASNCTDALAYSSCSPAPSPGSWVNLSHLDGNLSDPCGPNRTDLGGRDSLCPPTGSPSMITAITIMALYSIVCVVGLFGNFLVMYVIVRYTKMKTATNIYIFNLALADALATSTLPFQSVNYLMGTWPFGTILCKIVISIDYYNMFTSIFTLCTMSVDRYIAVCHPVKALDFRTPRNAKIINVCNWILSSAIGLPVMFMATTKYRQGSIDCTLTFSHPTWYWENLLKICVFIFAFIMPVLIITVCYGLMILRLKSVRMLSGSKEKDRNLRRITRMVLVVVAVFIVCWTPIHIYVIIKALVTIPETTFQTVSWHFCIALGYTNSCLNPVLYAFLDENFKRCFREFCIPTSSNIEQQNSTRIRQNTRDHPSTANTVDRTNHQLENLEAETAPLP", "format": "biochemical", "conditions": "presence of 1 μM RGS4"}, "Goα": {"target": "Goα (Rattus norvegicus, UniProt P59215)", "assay": "His6RGS4/Ni2+-NTA agarose pull-down of Goα from solubilized rat brain membranes", "format": "biochemical", "conditions": "for effect on association of Goα with His6RGS4: 100 μM GDP or 10 μM GTP alone"}, "MOR/G protein complex": {"target": "MOR/G protein complex (Rattus norvegicus, UniProt P33535)", "sequence (P33535 whole entry, one chain of several)": "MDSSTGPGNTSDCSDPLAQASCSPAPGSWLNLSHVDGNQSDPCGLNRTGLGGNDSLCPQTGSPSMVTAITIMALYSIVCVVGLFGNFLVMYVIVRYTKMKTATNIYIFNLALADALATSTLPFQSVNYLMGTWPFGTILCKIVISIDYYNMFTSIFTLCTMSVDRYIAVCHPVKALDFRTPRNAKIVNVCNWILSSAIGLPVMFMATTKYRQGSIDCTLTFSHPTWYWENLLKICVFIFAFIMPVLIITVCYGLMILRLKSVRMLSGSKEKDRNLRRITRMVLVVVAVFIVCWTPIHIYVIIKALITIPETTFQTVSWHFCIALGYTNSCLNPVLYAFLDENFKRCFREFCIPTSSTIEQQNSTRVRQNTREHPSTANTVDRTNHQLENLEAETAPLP", "assay": "Co-immunoprecipitation of Goα with MOR using anti-MOR349-398", "format": "biochemical", "conditions": "1 µM DAMGO; IP with anti-MOR349-398; Figure S2c"}, "mu opioid receptor": {"target": "mu opioid receptor (Homo sapiens, UniProt P35372)", "sequence (P35372 whole entry)": "as the sequence (P35372 whole entry) above", "assay": "biochemical"}, "[1]": {"target": "rat mu opioid receptor (MOR)/G protein complex (Rattus norvegicus, UniProt P33535+P59215)", "sequence (P33535 whole entry, one chain of several)": "as the sequence (P33535 whole entry, one chain of several) above", "assay": "Co-immunoprecipitation of Goα and RGS4 with solubilized MOR", "format": "biochemical", "conditions": "for amount of RGS4 co-immunoprecipitated with MOR: 1 μM DAMGO, 0.3 μM RGS4"}, "[2]": {"tested_on": "RGS4 mRNA levels in the locus coeruleus", "conditions": "6 days of chronic morphine administration; ref Gold et al. 2003; cited from earlier work"}, "[3]": {"target": "B2", "assay": "pull-down"}, "[4]": {"target": "mu opioid receptor (MOR), endogenous rat brain (rat, UniProt P33535 1-398)", "sequence (P33535 whole entry)": "as the sequence (P33535 whole entry, one chain of several) above", "assay": "co-IP"}, "Go/Gi-type G proteins": {"tested_on": "Go/Gi-type G proteins", "format": "biochemical, human", "conditions": "RGS4 added"}}, "note": "Several values for one entry are separate records, joined by “and”; a condition that tells them apart may be missing. Equal values may be shown once. Entries after “also recorded” stand apart in the source; their conditions may differ."}
{"molecule": "C[C@@H](NC(=O)[C@@H](N)Cc1ccc(O)cc1)C(=O)NCC(=O)N(C)[C@@H](Cc1ccccc1)C(=O)NCCO", "note": "[DAMGO, [D‐Ala^2, N‐Me‐Phe^4, Gly^5‐ol] enkephalin]", "values": [{"measurement": "maximal amount of [35S]GTPγS bound (Bmax)", "setting": "MOR", "result": "1319 ± 82", "unit": "dpm"}, {"measurement": "effect on binding of Goα to RGS4", "setting": "Goα; 1 μM DAMGO alone, without guanine nucleotide", "result": "did not affect"}, {"measurement": "Goα molecules whose affinity for GDP is decreased by MOR activation", "setting": "Goα; DAMGO with 100 μM GDP and 0.3 μM GTPγS", "result": "40–50%"}, {"measurement": "increase in Goα co-immunoprecipitating with MOR", "setting": "MOR/G protein complex", "result": "~2", "unit": "fold"}, {"measurement": "inhibition of forskolin-stimulated adenylyl cyclase activity", "setting": "mu opioid receptor", "result": "21.8% ± 2.27"}, {"measurement": "maximal inhibition, adenylyl cyclase activity reduced to", "setting": "mu opioid receptor", "result": "3.28 pmoles cAMP formed in 10 min and 3.92 pmoles cAMP formed in 10 min"}, {"measurement": "inhibition at 1 µM", "setting": "mu opioid receptor; read-out: inhibition of adenylyl cyclase activity", "result": "60.4 ± 2.97", "unit": "%"}, {"measurement": "increase in RGS4 co-immunoprecipitating with MOR", "setting": "[1]; DAMGO during immunoprecipitation vs no addition", "result": "50% and 53%"}]}
{"molecule": "Nc1nc2c(ncn2[C@@H]2O[C@H](COP(=O)(O)OP(=O)(O)OP(=O)(O)O)[C@@H](O)[C@H]2O)c(=O)[nH]1", "note": "[GTP]", "values": [{"measurement": "effect on association of Goα with His6RGS4", "setting": "Goα", "result": "failed to affect; also recorded: Neither 100 μM GDP nor 10 μM GTP affected; also recorded: neither GTP nor GDP had an effect"}, {"measurement": "effect on amount of Goα associated with MOR", "setting": "[1]; 10 μM GTP added to DAMGO vs DAMGO alone", "result": "did not alter"}, {"measurement": "additional increase in RGS4 co-immunoprecipitating with MOR", "setting": "[1]; 10 μM GTP with 1 μM DAMGO vs DAMGO alone", "result": "72% and 71.6%"}]}
{"molecule": "Nc1nc2c(ncn2[C@@H]2O[C@H](COP(=O)(O)OP(=O)(O)O)[C@@H](O)[C@H]2O)c(=O)[nH]1", "note": "[GDP]", "values": [{"measurement": "effect on association of Goα with His6RGS4", "setting": "Goα", "result": "failed to affect; also recorded: Neither 100 μM GDP nor 10 μM GTP affected; also recorded: neither GTP nor GDP had an effect"}, {"measurement": "effect on GTPγS-enhanced Goα binding to RGS4", "setting": "Goα; 100 μM GDP with 0.3 μM GTPγS", "result": "blocked this effect; also recorded: prevented; also recorded: return to the control level"}]}
{"molecule": "CN1CC[C@]23c4c5ccc(O)c4O[C@H]2[C@@H](O)C=C[C@H]3[C@H]1C5", "note": "[morphine]", "values": [{"measurement": "RGS4 mRNA levels in the locus coeruleus", "setting": "[2]", "result": "doubled"}]}
{"molecule": "B1", "values": [{"measurement": "fold increase of Goα bound to His6RGS4 with 0.3 uM GTPγS against control", "setting": "[3]", "result": "~3", "unit": "fold"}]}
{"molecule": "B2", "values": [{"measurement": "stoichiometry N", "setting": "[4]", "result": "~1"}]}
{"molecule": "B3", "values": [{"measurement": "amount of RGS4 co-immunoprecipitated with MOR", "setting": "[1]; absence of GTPγS", "result": "9 ± 1.1", "unit": "fmol"}, {"measurement": "amount of RGS4 co-immunoprecipitated with MOR", "setting": "[1]; presence of 1 μM GTPγS", "result": "28 fmol and 28.4 ± 5.4 fmol"}, {"measurement": "ratio of MOR to RGS4 in the immunoprecipitate", "setting": "[1]; presence of GTPγS", "result": "1–1"}, {"measurement": "effect on GTPγS-mediated inhibition of adenylyl cyclase activity", "setting": "Go/Gi-type G proteins", "result": "failed to attenuate; also recorded: failed to affect; also recorded: had no effect"}]}
